≈ marks a conversion by molar mass, not a printed value.
Assays:
E. coli 25922 = assay: Antibacterial activity, microbroth dilution MIC (Table 1); assay type: cell-based, Escherichia coli; conditions: Escherichia coli; microbroth dilution; control Gram-negative E. coli 25922 strain; read-out: MIC, 25922
How it was run: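 MIC (μg/mL) read as lowest concentration with no macroscopically visible growth; microbroth dilution format. E. coli 25922 served as control Gram-negative strain.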

[1] = test system: Staphylococcus aureus (S. aureus) 29213; assay: as above; assay type: cell-based; conditions: microbroth dilution, Gram-positive S. aureus 29213, read-out: MIC, 29213
How it was run: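 Broth microdilution; endpoint = no macroscopic growth; value = lowest inhibiting concn, μg/mL.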

[2] = test system: Escherichia coli (E. coli) BAS849; assay: as above; assay type: cell-based; conditions: microbroth dilution, super sensitive Gram-negative E. coli BAS849, read-out: MIC, BAS849
How it was run: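 Potency is reported as minimum inhibitory concentration in μg/mL, determined by broth microdilution as the lowest level of compound that stops growth visible to the eye.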

E. coli LZ3111 = assay: Antibacterial activity, MIC, quinolone resistant strain (Table 2); assay type: cell-based; conditions: Escherichia coli, LZ3111, read-out: MIC LZ3111
How it was run: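 Strain carries mutations conferring high-level quinolone resistance; tested by microbroth dilution, MIC recorded in μg/mL as lowest concentration preventing visible growth.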

Row | Compound | MIC (E. coli 25922) [µg/mL] | MIC [1] [µg/mL] | MIC [2] [µg/mL] | MIC (E. coli LZ3111) [µg/mL]
1 | CCc1c(-c2ccc3c(c2)cc(CNCc2cccc(OC)c2)n3C)[nH]c(=O)c(C(=O)O)c1O [Cpd 296, 5-ethyl-4-hydroxy-6-(2-((3-methoxybenzylamino)methyl)-1-methyl-1H-indol-5-yl)-2-oxo-1,2-dihydropyridine-3-carboxylic acid] | < 1 | 3.5 to 12.5 (≈ 7.58 to 27.1 µM) | < 1 | 12.5 to 150 (≈ 27.1 to 325 µM)
2 | CCc1c(-c2ccc3c(c2)cc(CNCc2ccc(C)cc2)n3C)[nH]c(=O)c(C(=O)O)c1O [Cpd 297, 5-ethyl-4-hydroxy-6-(1-methyl-2-((4-methylbenzylamino)methyl)-1H-indol-5-yl)-2-oxo-1,2-dihydropyridine-3-carboxylic acid] | < 1 | 1 to 3.5 (≈ 2.24 to 7.86 µM) | < 1 | 12.5 to 150 (≈ 28.1 to 337 µM)
3 | CCc1c(-c2ccc3c(c2)cc(CNCc2cccc(F)c2)n3C)[nH]c(=O)c(C(=O)O)c1O [Cpd 298, 5-ethyl-6-(2-((3-fluorobenzylamino)methyl)-1-methyl-1H-indol-5-yl)-4-hydroxy-2-oxo-1,2-dihydropyridine-3-carboxylic acid] | 1 to 3.5 (≈ 2.22 to 7.79 µM) | 1 to 3.5 (≈ 2.22 to 7.79 µM) | < 1 | 12.5 to 150 (≈ 27.8 to 334 µM)
4 | CCc1c(-c2ccc3c(c2)cc(CNCc2ccccc2F)n3C)[nH]c(=O)c(C(=O)O)c1O [Cpd 299, 5-ethyl-6-(2-((2-fluorobenzylamino)methyl)-1-methyl-1H-indol-5-yl)-4-hydroxy-2-oxo-1,2-dihydropyridine-3-carboxylic acid] | 1 to 3.5 (≈ 2.22 to 7.79 µM) | 1 to 3.5 (≈ 2.22 to 7.79 µM) | < 1 | 12.5 to 150 (≈ 27.8 to 334 µM)
5 | CCc1c(-c2ccc3c(c2)cc(CN(C)CCOC)n3C)[nH]c(=O)c(C(=O)O)c1O [Cpd 300, 5-ethyl-4-hydroxy-6-(2-(((2-methoxyethyl)(methyl)amino)methyl)-1-methyl-1H-indol-5-yl)-2-oxo-1,2-dihydropyridine-3-carboxylic acid] | 3.5 to 12.5 (≈ 8.46 to 30.2 µM) | 12.5 to 150 (≈ 30.2 to 363 µM) | < 1 | 12.5 to 150 (≈ 30.2 to 363 µM)
6 | CCc1c(-c2ccc3c(c2)cc(CNCC2CCCCCC2)n3C)[nH]c(=O)c(C(=O)O)c1O [Cpd 301, 6-(2-((cycloheptylmethylamino)methyl)-1-methyl-1H-indol-5-yl)-5-ethyl-4-hydroxy-2-oxo-1,2-dihydropyridine-3-carboxylic acid] | 12.5 to 150 (≈ 27.7 to 332 µM) | 3.5 to 12.5 (≈ 7.75 to 27.7 µM) | < 1 | 12.5 to 150 (≈ 27.7 to 332 µM)
7 | CCc1c(-c2ccc3c(c2)cc(CN(C)CCN(C)C)n3C)[nH]c(=O)c(C(=O)O)c1O [Cpd 303, 6-(2-(((2-(dimethylamino)ethyl)(methyl)amino)methyl)-1-methyl-1H-indol-5-yl)-5-ethyl-4-hydroxy-2-oxo-1,2-dihydropyridine-3-carboxylic acid] | 3.5 to 12.5 (≈ 8.21 to 29.3 µM) | 12.5 to 150 (≈ 29.3 to 352 µM) | < 1 | 12.5 to 150 (≈ 29.3 to 352 µM)
8 | CCc1c(-c2ccc3c(c2)cc(C(C)(C)N2CCCC2)n3C)[nH]c(=O)c(C(=O)O)c1O [Cpd 307, 5-ethyl-4-hydroxy-6-(1-methyl-2-(2-(pyrrolidin-1-yl)propan-2-yl)-1H-indol-5-yl)-2-oxo-1,2-dihydropyridine-3-carboxylic acid] | 12.5 to 150 (≈ 29.5 to 354 µM) | 1 to 3.5 (≈ 2.36 to 8.26 µM) | < 1 | 12.5 to 150 (≈ 29.5 to 354 µM)
9 | CCc1c(-c2ccc3c(c2)cc(C(C)(C)N(C)C)n3C)[nH]c(=O)c(C(=O)O)c1O [Cpd 308, 6-(2-(2-(dimethylamino)propan-2-yl)-1-methyl-1H-indol-5-yl)-5-ethyl-4-hydroxy-2-oxo-1,2-dihydropyridine-3-carboxylic acid] | 12.5 to 150 (≈ 31.4 to 377 µM) | 1 to 3.5 (≈ 2.52 to 8.81 µM) | < 1 | 12.5 to 150 (≈ 31.4 to 377 µM)
10 | Cn1c(CN2CCCC2)cc2cc(-c3[nH]c(=O)c(C(=O)O)c(O)c3-c3ccc(F)cc3)ccc21 [Cpd 309, 5-(4-fluorophenyl)-4-hydroxy-6-(1-methyl-2-(pyrrolidin-1-ylmethyl)-1H-indol-5-yl)-2-oxo-1,2-dihydropyridine-3-carboxylic acid] | 3.5 to 12.5 (≈ 7.58 to 27.1 µM) | 12.5 to 150 (≈ 27.1 to 325 µM) | < 1 | 12.5 to 150 (≈ 27.1 to 325 µM)
11 | CN(C)Cc1cc2cc(-c3[nH]c(=O)c(C(=O)O)c(O)c3-c3ccc(F)cc3)ccc2n1C [Cpd 310, 6-(2-((dimethylamino)methyl)-1-methyl-1H-indol-5-yl)-5-(4-fluorophenyl)-4-hydroxy-2-oxo-1,2-dihydropyridine-3-carboxylic acid] | 3.5 to 12.5 (≈ 8.04 to 28.7 µM) | 12.5 to 150 (≈ 28.7 to 344 µM) | < 1 | 12.5 to 150 (≈ 28.7 to 344 µM)
12 | Cn1c(CNCC2CC2)cc2cc(-c3[nH]c(=O)c(C(=O)O)c(O)c3-c3ccc(F)cc3)ccc21 [Cpd 311, 6-(2-((cyclopropylmethylamino)methyl)-1-methyl-1H-indol-5-yl)-5-(4-fluorophenyl)-4-hydroxy-2-oxo-1,2-dihydropyridine-3-carboxylic acid] | 1 to 3.5 (≈ 2.17 to 7.58 µM) | 12.5 to 150 (≈ 27.1 to 325 µM) | < 1 | 12.5 to 150 (≈ 27.1 to 325 µM)
13 | Cn1c(CN2CCC2)cc2cc(-c3[nH]c(=O)c(C(=O)O)c(O)c3-c3ccc(F)cc3)ccc21 [Cpd 312, 6-(2-(azetidin-1-ylmethyl)-1-methyl-1H-indol-5-yl)-5-(4-fluorophenyl)-4-hydroxy-2-oxo-1,2-dihydropyridine-3-carboxylic acid] | 3.5 to 12.5 (≈ 7.82 to 27.9 µM) | 12.5 to 150 (≈ 27.9 to 335 µM) | < 1 | 12.5 to 150 (≈ 27.9 to 335 µM)
14 | CC(C)c1c(-c2ccc3c(c2)cc(CN2CCCC2)n3C)[nH]c(=O)c(C(=O)O)c1O [Cpd 319, 4-hydroxy-5-isopropyl-6-(1-methyl-2-(pyrrolidin-1-ylmethyl)-1H-indol-5-yl)-2-oxo-1,2-dihydropyridine-3-carboxylic acid] | 1 to 3.5 (≈ 2.44 to 8.55 µM) | 3.5 to 12.5 (≈ 8.55 to 30.5 µM) | < 1 | 12.5 to 150 (≈ 30.5 to 366 µM)
15 | CC(C)c1c(-c2ccc3c(c2)cc(CN2CCC2)n3C)[nH]c(=O)c(C(=O)O)c1O [Cpd 320, 6-(2-(azetidin-1-ylmethyl)-1-methyl-1H-indol-5-yl)-4-hydroxy-5-isopropyl-2-oxo-1,2-dihydropyridine-3-carboxylic acid] | 1 to 3.5 (≈ 2.53 to 8.85 µM) | 3.5 to 12.5 (≈ 8.85 to 31.6 µM) | < 1 | 12.5 to 150 (≈ 31.6 to 379 µM)
16 | CC(C)c1c(-c2ccc3c(c2)cc(CNCC2CC2)n3C)[nH]c(=O)c(C(=O)O)c1O [Cpd 321, 6-(2-((cyclopropylmethylamino)methyl)-1-methyl-1H-indol-5-yl)-4-hydroxy-5-isopropyl-2-oxo-1,2-dihydropyridine-3-carboxylic acid] | 1 to 3.5 (≈ 2.44 to 8.55 µM) | 3.5 to 12.5 (≈ 8.55 to 30.5 µM) | < 1 | 12.5 to 150 (≈ 30.5 to 366 µM)
17 | CN(C)Cc1cc2cc(-c3cc(O)c(C(=O)O)c(=O)[nH]3)ccc2n1C [Cpd 326, 6-(2-((dimethylamino)methyl)-1-methyl-1H-indol-5-yl)-4-hydroxy-2-oxo-1,2-dihydropyridine-3-carboxylic acid] | 12.5 to 150 (≈ 36.6 to 439 µM) | 12.5 to 150 (≈ 36.6 to 439 µM) | 12.5 to 150 (≈ 36.6 to 439 µM) | 12.5 to 150 (≈ 36.6 to 439 µM)
18 | Cn1c(CN2CCCC2)cc2cc(-c3cc(O)c(C(=O)O)c(=O)[nH]3)ccc21 [Cpd 327, 4-hydroxy-6-(1-methyl-2-(pyrrolidin-1-ylmethyl)-1H-indol-5-yl)-2-oxo-1,2-dihydropyridine-3-carboxylic acid] | 12.5 to 150 (≈ 34 to 408 µM) | 12.5 to 150 (≈ 34 to 408 µM) | 3.5 to 12.5 (≈ 9.53 to 34 µM) | 12.5 to 150 (≈ 34 to 408 µM)
19 | CCc1c(-c2ccc3c(c2)cc(CN2CCCC2)n3C)[nH]c(=O)c(C(=O)O)c1N [Cpd 329, 4-amino-5-ethyl-6-(1-methyl-2-(pyrrolidin-1-ylmethyl)-1H-indol-5-yl)-2-oxo-1,2-dihydropyridine-3-carboxylic acid] | 3.5 to 12.5 (≈ 8.87 to 31.7 µM) | 12.5 to 150 (≈ 31.7 to 380 µM) | < 1 | 12.5 to 150 (≈ 31.7 to 380 µM)
20 | CCc1c(-c2ccc3c(c2)cc(CN(C)C)n3C)[nH]c(=O)c(C(=O)O)c1N [Cpd 330, 4-amino-6-(2-((dimethylamino)methyl)-1-methyl-1H-indol-5-yl)-5-ethyl-2-oxo-1,2-dihydropyridine-3-carboxylic acid] | 3.5 to 12.5 (≈ 9.5 to 33.9 µM) | 12.5 to 150 (≈ 33.9 to 407 µM) | < 1 | 12.5 to 150 (≈ 33.9 to 407 µM)
21 | CCc1c(-c2ccc3c(c2)cc(CN2CCC(N(C)C)C2)n3C)[nH]c(=O)c(C(=O)O)c1N (stereo not shown) [Cpd 332, 4-amino-6-(2-((3-(dimethylamino)pyrrolidin-1-yl)methyl)-1-methyl-1H-indol-5-yl)-5-ethyl-2-oxo-1,2-dihydropyridine-3-carboxylic acid] | 12.5 to 150 (≈ 28.6 to 343 µM) | 12.5 to 150 (≈ 28.6 to 343 µM) | 3.5 to 12.5 (≈ 8 to 28.6 µM) | 12.5 to 150 (≈ 28.6 to 343 µM)
22 | CCc1c(-c2ccc3c(c2)c(C#N)cn3C)[nH]c(=O)c(C(=O)O)c1O [Cpd 359, 6-(3-cyano-1-methyl-1H-indol-5-yl)-5-ethyl-4-hydroxy-2-oxo-1,2-dihydropyridine-3-carboxylic acid] | 12.5 to 150 (≈ 37.1 to 445 µM) | 12.5 to 150 (≈ 37.1 to 445 µM) | 3.5 to 12.5 (≈ 10.4 to 37.1 µM) | 1 to 3.5 (≈ 2.96 to 10.4 µM)
